The source of these data is DBAASP.

Among the test systems are Staphylococcus aureus; Pseudomonas aeruginosa 9; Aspergillus fumigatus; Bibersteinia trehalosi; Klebsiella pneumoniae; Pasteurella multocida.
Holding throughout (assay): ≥ marks a high value that may be exact or a test limit, other limits are often not marked, values filed in µg/mL are converted to µM
Assay [1] deals with Micrococcus luteus ATCC 9341.
Assay [2] concerns Corynebacterium diphtheriae ATCC 8024.
For assay [3], the system named is Candida albicans ATCC 36232.
In assay [4] the test system is Bacillus subtilis ATCC 6633.
Assay [5] concerns Shigella flexneri ATCC 203.
Assay [6] has as its system Staphylococcus epidermidis ATCC 12228.
Assay [7] concerns Staphylococcus aureus ATCC 6538.
Assay [8] relates to Escherichia coli ATCC 2592.
Assay [9] concerns Pseudomonas aeruginosa ATCC 9027.
Assay [10] relates to Pseudomonas aeruginosa LES400.
Assay [11] has as its system Pseudomonas aeruginosa H1030.
For assay [12], the system named is Klebsiella pneumoniae ESBL 61962.
In assay [13] the test system is Pseudomonas aeruginosa 198.
Assay [14] concerns Pseudomonas aeruginosa PAO1 H103.
Assay [15] deals with Enterococcus faecalis f43559.
The subject of assay [16] is Enterococcus faecium t62764.
For assay [17], the system named is Staphylococcus aureus C623.
Assay [18] relates to Enterobacter cloacae 218R.
The subject of assay [19] is Pseudomonas aeruginosa H1027.
In assay [20] the test system is Stenotrophomonas maltophilia ATCC 13637.
Assay [21] deals with Klebsiella pneumoniae ESBL 63575.
Assay [22] has as its system Enterococcus faecalis ATCC 29212.
In assay [23] the test system is Escherichia coli ESBL 64771.
The test system of assay [24] is Staphylococcus aureus ATCC 25923.
In assay [25] the test system is Enterococcus faecium mic80.
Assay [26] relates to Pseudomonas aeruginosa 213.
Assay [27] relates to Enterococcus faecalis W61950.
For assay [28], the system named is Escherichia coli ESBL 63103.
For assay [29], the system named is Xanthomonas arboricola pv. pruni CFBP 5563.
Assay [30] has as its system Streptococcus pneumoniae ATCC 49619.
Assay [31] deals with Pseudomonas aeruginosa ATCC 27553.
For assay [32], the system named is Erwinia amylovora PMV 6076.
Assay [33] has as its system Salmonella typhimurium ATCC 50013.
Assay [34] deals with Shigella dysenteriae ATCC 51302.
The subject of assay [35] is Xanthomonas fragariae Xf349-9A.
Assay [36] deals with Pseudomonas syringae pv. actinidiae Psa3700.1.1.
Assay [37] has as its system Xanthomonas campestris pv. Vesicatoria 2133-2.
Assay [38] concerns Bacillus subtilis ATCC 23631.
Assay [39] relates to Pseudomonas syringae pv. syringae EPS 94.
Assay [40] deals with Pseudomonas aeruginosa PAO1.
Assay [41] concerns Mannheimia haemolytica Serovar 2.
Assay [42] concerns Salmonella enterica subsp. arizonae.
The test system of assay [43] is Mannheimia haemolytica Serovar 6.
The test system of assay [44] is Mannheimia haemolytica Serovar 1.
For assay [45], the system named is Corynebacterium pseudotuberculosis ATCC 19410.

Values after ≈ are worked out from the molar mass of the structure shown.

Usually MIC stands for the lowest concentration found to suppress growth. A higher MIC goes with a need for much substance. Turning to `CC(C)[C@H](NC(=O)[C@H](CS)NC(=O)[C@@H](NC(=O)[C@H](CCCN=C(N)N)NC(=O)[C@H](CCCCN)NC(=O)CNC(=O)[C@H](CC(N)=O)NC(=O)[C@@H](N)CS)C(C)C)C(=O)N[C@@H](CS)C(N)=O` [CNGKRVCVC], the MIC in assay [1] is ≥ 102 µM; in assay [2] it was ≥ 102 µM; in assay [3], ≥ 102 µM; in assay [4] it was ≥ 102 µM; in assay [5] it was ≥ 102 µM; in assay [6], > 102 µM. In addition, the MIC in [7] was > 102 µM; in [8], ≥ 102 µM; in [9], > 102 µM; against Staphylococcus aureus, > 102 µM.
In the case of `CC[C@H](C)[C@H](NC(=O)[C@H](CCCN=C(N)N)NC(=O)[C@@H](N)CCCCN)C(=O)N[C@@H](CCSC)C(=O)N[C@@H](CCCCN)C(=O)N[C@@H](CC(C)C)C(=O)N[C@@H](CCCCN)C(=O)N[C@@H](CCSC)C(=O)N[C@@H](CCCN=C(N)N)C(=O)O` [KRIMKLKMR], the MIC (with Pseudomonas aeruginosa 9; in assay [10]; in assay [11]; in assay [12]; in [13]; in [14]) was ≥ 226 µM in each case. Further, the minimal inhibitory concentration (MIC) in assay [15], in assay [16], in [17], in assay [18], in [19] and in assay [20] was ≥ 226 µM in each case. The MIC in assay [21] was ≥ 226 µM; in [22] it was > 226 µM; in [23], ≥ 226 µM; in assay [24] it was > 226 µM; in [25], ≥ 226 µM; in assay [26] it was ≥ 226 µM. Besides, the MIC in assay [27] and in assay [28] was ≥ 226 µM in each case.
As for `CC(C)C[C@H](NC(=O)CNC(=O)[C@H](CC(C)C)NC(=O)[C@H](Cc1ccccc1)NC(=O)[C@@H](NC(=O)[C@@H](N)CCCCN)C(C)C)C(=O)N[C@@H](CCCCN)C(=O)O` [KVFLGLK], the MIC is ≥ 50 µM in assay [29]; ≥ 69.6 µM in [30]; ≥ 79.6 µM in [31]; ≥ 50 µM in [32]; ≥ 59.7 µM in [33]; ≥ 59.7 µM in assay [34]. The minimal inhibitory concentration (MIC) in [35] is ≥ 50 µM; in assay [36], ≥ 50 µM; in [37] it was ≥ 50 µM; in assay [24], 49.7 µM (≈ 40 µg/mL); in assay [38], 29.8 µM (≈ 24 µg/mL); in assay [39], ≥ 50 µM.
Regarding `CC[C@H](C)[C@H](NC(=O)[C@H](CCCN=C(N)N)NC(=O)[C@H](CCCN=C(N)N)NC(=O)[C@H](CC(C)C)NC(=O)[C@@H](N)CC(N)=O)C(=O)N[C@H](C(=O)N[C@@H](CCCN=C(N)N)C(=O)N[C@@H](CCCCN)C(=O)N[C@H](C(=O)N[C@H](C(=O)N[C@@H](Cc1cnc[nH]1)C(=O)N[C@H](C(=O)N[C@H](C(=O)N[C@@H](CCCCN)C(=O)N[C@@H](CCCCN)C(=O)N[C@@H](Cc1ccc(O)cc1)C(=O)O)[C@@H](C)CC)[C@@H](C)CC)[C@@H](C)CC)[C@@H](C)CC)[C@@H](C)CC` [NLRRIIRKIIHIIKKY], the minimal inhibitory concentration (MIC) was 6.4 µM (≈ 13.3 µg/mL) in the assay on Aspergillus fumigatus; 1.01 µM (≈ 2.1 µg/mL) with Bibersteinia trehalosi; 1.2 µM (≈ 2.5 µg/mL) in assay [40]; 2.41 µM (≈ 5 µg/mL) in [41]; 0.626 µM (≈ 1.3 µg/mL) against Klebsiella pneumoniae; 1.01 µM (≈ 2.1 µg/mL) in the assay with Pasteurella multocida. The minimal inhibitory concentration (MIC) in assay [42] was determined as 2.41 µM (≈ 5 µg/mL); in [43], 1.2 µM (≈ 2.5 µg/mL); in assay [44], 0.626 µM (≈ 1.3 µg/mL); in [45], 9.63 µM (≈ 20 µg/mL); in the assay on Staphylococcus aureus, 4.81 µM (≈ 10 µg/mL).
As for `CC[C@H](C)[C@H](NC(=O)[C@H](Cc1cnc[nH]1)NC(=O)[C@@H](NC(=O)[C@@H](NC(=O)[C@H](CCCCN)NC(=O)[C@H](CCCN=C(N)N)NC(=O)[C@@H](NC(=O)[C@@H](NC(=O)[C@H](CCCN=C(N)N)NC(=O)[C@@H](N)CCCN=C(N)N)[C@@H](C)CC)[C@@H](C)CC)[C@@H](C)CC)[C@@H](C)CC)C(=O)N[C@H](C(=O)N[C@@H](CCCCN)C(N)=O)[C@@H](C)CC` [RRIIRKIIHIIK], the minimum inhibitory concentration (MIC) in the assay with Aspergillus fumigatus is 17.1 µM (≈ 26.7 µg/mL); in the assay on Bibersteinia trehalosi, 12.8 µM (≈ 20 µg/mL); in assay [40], 1.09 µM (≈ 1.7 µg/mL); in [41], 6.67 µM (≈ 10.4 µg/mL); against Klebsiella pneumoniae, > 12.8 µM; against Pasteurella multocida, 12.8 µM (≈ 20 µg/mL). In addition, the minimal inhibitory concentration (MIC) in assay [42] was 12.8 µM (≈ 20 µg/mL); in assay [43], 4.3 µM (≈ 6.7 µg/mL); in assay [44], 12.8 µM (≈ 20 µg/mL); in assay [45] it was 12.8 µM (≈ 20 µg/mL); with Staphylococcus aureus, > 12.8 µM.
